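Exposure lasted 48 hours, with cells grown in 96-well plates and compounds tested at five concentrations. At the GI50, growth is halved.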 The source made the active and inactive calls. Cut-off read from the data, not from the text of the source: active = GI50 up to about 1.1 µM and inactive = higher.
Experiments:
Assay in all cases: growth of human tumour cells (NCI), 48 h
Malme-3M = test system: Malme-3M
OVCAR-4 = test system: OVCAR-4
RXF 393 = test system: RXF 393
MDA-MB-231 = test system: MDA-MB-231
SF-539 = test system: SF-539
SK-MEL-28 = test system: SK-MEL-28
LOX IMVI = test system: LOX IMVI
HOP-92 = test system: HOP-92
ACHN = test system: ACHN
K562 = test system: K562
SN12C = test system: SN12C
SNB-75 = test system: SNB-75
NCI-H522 = test system: NCI-H522
SR = test system: SR
HOP-62 = test system: HOP-62
DU-145 = test system: DU-145
CCRF-CEM = test system: CCRF-CEM
SK-MEL-5 = test system: SK-MEL-5
UO-31 = test system: UO-31
Hs-578T = test system: Hs-578T

Row | SMILES | GI50 (Malme-3M) | GI50 (OVCAR-4) | GI50 (RXF 393) | GI50 (MDA-MB-231) | GI50 (SF-539) | GI50 (SK-MEL-28) | GI50 (LOX IMVI) | GI50 (HOP-92) | GI50 (ACHN) | GI50 (K562) | GI50 (SN12C) | GI50 (SNB-75) | GI50 (NCI-H522) | GI50 (SR) | GI50 (HOP-62) | GI50 (DU-145) | GI50 (CCRF-CEM) | GI50 (SK-MEL-5) | GI50 (UO-31) | GI50 (Hs-578T)
1 | O=C1c2ccccc2C(=O)c2c1oc1cc(O)c(Cl)cc21 | 1.07 µM (active) | 8.18 µM (inactive) | 9.46 µM (inactive) | 12.8 µM (inactive) | 5.41 µM (inactive) | 3.05 µM (inactive) | 1.61 µM (inactive) | 8.13 µM (inactive) | 7 µM (inactive) | 13.5 µM (inactive) | 7.98 µM (inactive) | 2.88 µM (inactive) | 9.42 µM (inactive) | 11.8 µM (inactive) | 10.7 µM (inactive) | 4.89 µM (inactive) | 8.71 µM (inactive) | 0.299 µM (active) | 11.9 µM (inactive) | 2.29 µM (inactive)
2 | NS(=O)(=O)c1cc(Br)c(/N=N\c2ccc(O)c3ncccc23)c(Br)c1 | 13.5 µM (inactive) | 43.6 µM (inactive) | 46.5 µM (inactive) | 51.1 µM (inactive) | 25.9 µM (inactive) | 27.4 µM (inactive) | 20.9 µM (inactive) | 41.8 µM (inactive) | 4.34 µM (inactive) | 20 µM (inactive) | 22.3 µM (inactive) | 21.7 µM (inactive) | 16.5 µM (inactive) | 9.46 µM (inactive) | 25.5 µM (inactive) | 47 µM (inactive) | 3.78 µM (inactive) | 30.7 µM (inactive) | 21.3 µM (inactive) | 21.8 µM (inactive)
3 | CCOC(=O)/C=C(\C)Sc1cc(O)c2ccccc2c1O | 9.66 µM (inactive) | 16.1 µM (inactive) | 14.9 µM (inactive) | 16.4 µM (inactive) | 21.5 µM (inactive) | 13.2 µM (inactive) | 5.37 µM (inactive) | 21.2 µM (inactive) | 13.8 µM (inactive) | 5.51 µM (inactive) | 29.2 µM (inactive) | 10.1 µM (inactive) | 10.1 µM (inactive) | 7.62 µM (inactive) | 20.2 µM (inactive) | 9.02 µM (inactive) | 6.64 µM (inactive) | 12.6 µM (inactive) | 4.51 µM (inactive) | 58.9 µM (inactive)
4 | O=S(=O)(O)c1ccc(Nc2ccnc3ccccc23)cc1 | > 100 µM (inactive) | > 100 µM (inactive) | > 100 µM (inactive) | > 100 µM (inactive) | > 100 µM (inactive) | > 100 µM (inactive) | > 100 µM (inactive) | > 100 µM (inactive) | > 100 µM (inactive) | > 100 µM (inactive) | > 100 µM (inactive) | > 100 µM (inactive) | > 100 µM (inactive) | > 100 µM (inactive) | > 100 µM (inactive) | > 100 µM (inactive) | > 100 µM (inactive) | > 100 µM (inactive) | > 100 µM (inactive) | > 100 µM (inactive)
5 | O=C1/C(=C/c2ccccc2)CN(C(=O)OCc2ccccc2)C/C1=C\c1ccccc1 | 30.4 µM (inactive) | 11.6 µM (inactive) | 13.4 µM (inactive) | 17.8 µM (inactive) | 18.3 µM (inactive) | 11.5 µM (inactive) | 4.76 µM (inactive) | > 69.5 µM (inactive) | 12.5 µM (inactive) | 1.88 µM (inactive) | 13.8 µM (inactive) | > 31.6 µM (inactive) | 6.76 µM (inactive) | 1.53 µM (inactive) | 32.1 µM (inactive) | 54.8 µM (inactive) | 2.08 µM (inactive) | 16.8 µM (inactive) | 14.6 µM (inactive) | 2.47 µM (inactive)
6 | CCC[N+](C)(C)CCCNC(=O)c1c(O)c2ccccc2[nH]c1=O | 24.3 µM (inactive) | > 100 µM (inactive) | > 100 µM (inactive) | > 100 µM (inactive) | > 100 µM (inactive) | > 100 µM (inactive) | > 100 µM (inactive) | > 100 µM (inactive) | > 100 µM (inactive) | > 100 µM (inactive) | > 100 µM (inactive) | > 100 µM (inactive) | > 100 µM (inactive) | > 100 µM (inactive) | > 100 µM (inactive) | > 100 µM (inactive) | > 100 µM (inactive) | 15.9 µM (inactive) | 53.1 µM (inactive) | > 100 µM (inactive)
7 | Oc1c(O)c(Cc2ccccc2)c(Cc2ccccc2)c(Cc2ccccc2)c1Cc1ccccc1 | > 10 µM (inactive) | > 10 µM (inactive) | > 10 µM (inactive) | > 10 µM (inactive) | > 10 µM (inactive) | > 10 µM (inactive) | > 10 µM (inactive) | > 10 µM (inactive) | > 10 µM (inactive) | > 10 µM (inactive) | > 10 µM (inactive) | > 10 µM (inactive) | > 10 µM (inactive) | > 10 µM (inactive) | > 10 µM (inactive) | > 10 µM (inactive) | > 10 µM (inactive) | > 10 µM (inactive) | > 10 µM (inactive) | > 10 µM (inactive)
8 | COc1cc(NP(=O)(Oc2ccccc2)Oc2ccccc2)ccc1Nc1c2ccccc2nc2c1[nH]c1ccccc12 | 4.46 µM (inactive) | 3.22 µM (inactive) | 2.46 µM (inactive) | 4.68 µM (inactive) | 0.36 µM (active) | 16.2 µM (inactive) | 0.598 µM (active) | 0.933 µM (active) | 0.221 µM (active) | 1.62 µM (inactive) | 0.327 µM (active) | 0.766 µM (active) | 1.6 µM (inactive) | < 0.0158 µM (active) | 0.359 µM (active) | 0.286 µM (active) | 0.183 µM (active) | 1.22 µM (inactive) | 0.617 µM (active) | 17.1 µM (inactive)
9 | COC(=O)C1=NN2c3ccccc3CN([C@@H](C)c3ccccc3)C(=O)[C@H]2[C@@H]1C | 38.4 µM (inactive) | 28.9 µM (inactive) | 40.3 µM (inactive) | 83 µM (inactive) | 40.5 µM (inactive) | 49.2 µM (inactive) | 35.2 µM (inactive) | 44.7 µM (inactive) | 39 µM (inactive) | 7.13 µM (inactive) | 70.6 µM (inactive) | 27.2 µM (inactive) | 21.1 µM (inactive) | 25.5 µM (inactive) | 52.1 µM (inactive) | 47.5 µM (inactive) | 0.743 µM (active) | 12.6 µM (inactive) | 56 µM (inactive) | 67.1 µM (inactive)
10 | COc1ccc(N/N=C/C2=CC(C)(C)C(C#N)(C#N)C(O)=C2C#N)cc1 | 29.4 µM (inactive) | 50 µM (inactive) | 36.6 µM (inactive) | 34.3 µM (inactive) | 26.1 µM (inactive) | 91.2 µM (inactive) | 31.4 µM (inactive) | 17.1 µM (inactive) | 40.4 µM (inactive) | 16.1 µM (inactive) | 47.4 µM (inactive) | > 100 µM (inactive) | 37.7 µM (inactive) | 11.5 µM (inactive) | 43.6 µM (inactive) | 77.8 µM (inactive) | 35.5 µM (inactive) | 69.7 µM (inactive) | 20.5 µM (inactive) | 44.7 µM (inactive)
11 | COC1/C=C/O[C@@]2(C)Oc3c(C)c(O)c4c(O)c(cc(O)c4c3C2=O)NC(=O)/C(C)=C\C=C\[C@H](C)C(O)[C@@H](C)[C@@H](O)[C@@H](C)[C@H](OC(C)=O)[C@@H]1C (stereo not given in full) | 30.6 µM (inactive) | 13.1 µM (inactive) | 11.2 µM (inactive) | 23.3 µM (inactive) | 25.9 µM (inactive) | 22.5 µM (inactive) | 14 µM (inactive) | 10.2 µM (inactive) | 19.4 µM (inactive) | 9.89 µM (inactive) | 14.1 µM (inactive) | 36.8 µM (inactive) | 5.3 µM (inactive) | 6.15 µM (inactive) | 117 µM (inactive) | 24 µM (inactive) | 2.06 µM (inactive) | 32.1 µM (inactive) | 51.3 µM (inactive) | 33 µM (inactive)
